For six compounds, MIC and mortality results are on record in ChEMBL document CHEMBL4431305, “Chermesins A-D: Meroterpenoids with a Drimane-Type Spirosesquiterpene Skeleton from the Marine Algal-Derived Endophytic Fungus Penicillium chermesinum EN-480” (J Nat Prod, 2016).

Structures are written as SMILES. Values after ≈ are worked out from the molar mass of the structure shown. Active and inactive are the calls of the source. The rule behind the calls is not given here. A value given as a limit tells only on which side of the number the result lay.

For series [1], the system named is Candida albicans. As to the kind of experiment: Antimicrobial activity against Candida albicans by microplate assay. It counts as functional.
In series [2] the test system is Escherichia coli. As to the kind of experiment: Antimicrobial activity against Escherichia coli by microplate assay. The class given is functional.
Series [3] concerns Vibrio alginolyticus. Kind of series: Antimicrobial activity against Vibrio alginolyticus by microplate assay. It counts as functional.
Series [4] can be described thus: Toxicity in Artemia salina assessed as lethality at 100 ug/ml measured after 6 to 24 hrs. The class given is organism-based. The settings on record: in vivo.
The subject of series [5] is Micrococcus luteus. Kind of series: Antimicrobial activity against Micrococcus luteus by microplate assay. The class given is functional.

As usually defined, the MIC is the lowest concentration found to suppress growth. In general, mortality refers to the share of the test organisms that died. Turning to `CC1=CC(=O)C(C)=C2O[C@@]3(C[C@]12C)[C@@H](C)CC[C@H]1C(C)(C)[C@@H](O)CC[C@@]13C`, the MIC in series [1] turned out to be 32 µg/mL (≈ 85.9 µM); in series [2], 32 µg/mL (≈ 85.9 µM); in series [3] it was 32 µg/mL (≈ 85.9 µM); in series [5], 8 µg/mL (≈ 21.5 µM). The mortality at 100 ug/ml in series [4] is less than 60%.

With `C[C@@H]1[C@H](O)[C@@H](C)/C=C/C=C/C=C/C=C/C=C/C=C/C=C/[C@H](O[C@@H]2O[C@H](C)[C@@H](O)[C@H](N)[C@@H]2O)C[C@@H]2O[C@](O)(C[C@@H](O)C[C@@H](O)[C@H](O)CC[C@@H](O)C[C@@H](O)CC(=O)O[C@H]1C)C[C@H](O)[C@H]2C(=O)O` [AMPHOTERICIN B], it took 2 µg/mL (≈ 2.16 µM) to inhibit growth in series [1] (MIC).

On to `CC1=CC(=O)C(C)=C2O[C@@]3(C[C@]12C)[C@@H](C)CC[C@H]1C(C)(C)C(=O)CC[C@@]13C`, for which the MIC in series [1] worked out at 64 µg/mL (≈ 173 µM); in series [2], 64 µg/mL (≈ 173 µM); in series [3], 64 µg/mL (≈ 173 µM); in series [5] it was 8 µg/mL (≈ 21.6 µM). In series [4], the mortality at 100 ug/ml is less than 60%.

Turning to `CC1=C2O[C@@]3(C[C@]2(C)C(C)=C(C(=O)O)C1=O)[C@@H](C)CC[C@H]1C(C)(C)C(=O)CC[C@@]13C`, the MIC entry in series [1], in series [3] and in series [5] was “inactive” each time. This compound yielded an MIC in series [2] of 64 µg/mL (≈ 154 µM). For the same compound, in series [4], the mortality at 100 ug/ml is less than 60%.

For `O=C(N[C@H](CO)[C@H](O)c1ccc([N+](=O)[O-])cc1)C(Cl)Cl` [CHLORAMPHENICOL], the figures for the MIC in series [2], in series [3] and in series [5] were 2 µg/mL (≈ 6.19 µM), 4 µg/mL (≈ 12.4 µM) and 2 µg/mL (≈ 6.19 µM), respectively.

For the compound `COC(=O)[C@@H]1C(=O)C(C)=C2O[C@@]3(C[C@]2(C)[C@H]1C)[C@@H](C)[C@@H](O)C[C@H]1C(C)(C)[C@@H](O)CC[C@@]13C`, the MIC result in series [1], in series [2], in series [3] and in series [5] was “inactive” in each case. Further, the mortality at 100 ug/ml in series [4] is less than 60%.
